Measurements: patent US20250386827A1, “PESTICIDES WITH METAL NANOPARTICLE AND CELLULOSIC NANOMATERIAL COMPLEX” (NDSU Research Foundation, priority 2024, published 2025)

Assays:
[1] = test system: wheat leaf surface; test: Contact angle and solid-liquid adhesion energy on wheat leaf surface; format: physicochemical; conditions: 100 mg/mL
Experimental: (§1) Surface Adhesion Properties. The contact angle (θc) of the complexation solution on the wheat leaf surface and the surface tension at the liquid-vapor interface (γLV) were measured using a KRUSS (Model: DSA1005, Serial: 30009734, Germany) drop-shape analyzer. The wheat leaf was taped on the sample stage to prepare a flat and level surface for the measurement. […] KRUSS software tracked the surface of the droplet with respect to the leaf surface baseline and calculated the contact angle (θC). Surface tension γLv of the droplet (largest droplet formation at syringe nozzle just before dripping from the nozzle) was measured using a KRUSS drop shape analyzer (pendant needle was used, diameter 1.8 mm). The solid-liquid adhesion energy per unit area (δWSLV) of the droplet was calculated using the following Young-Dupré equation (1): [formula]

[2] = Surface tension of droplet (pendant drop, drop-shape analyzer); format: physicochemical; conditions: 100 mg/mL in water
Experimental: as §1, with “[formula]” left out

## O.O.O.O.O.O=S(=O)([O-])[O-].[Cu+2] [CuSO4, copper (II) sulfate pentahydrate]
[1]
  contact angle: 125.2 °
[1]; Young-Dupré equation
  surface adhesion energy: 24.17 mM/m
[2]
  surface tension: 57.46 mM/m
